Source: patent US12391695B2, “PRMT5 inhibitors” (Lupin Limited, priority 2019, dated 2025)

Columns and labels:
[1] = molecular target: PRMT5:MEP50 (Homo sapiens, UniProt O14744); experiment: PRMT5 biochemical assay (HTRF, biotinylated H4R3 substrate), protocols 1 and 2; details: 1 μM SAM, 50 nM biotinylated H4R3, protocol 1 or 2 not given, read-out: IC50 (activity range), inhibition of PRMT5
Experimental: (§1) Inhibitory effect of compounds on PRMT5 was assessed using HTRF detection technology in biochemical assay. Biotinylated H4R3 (residues 1-21) was used as a substrate. Compounds were pre-incubated with 15-25 ng PRMT5:MEP50 per well of a 384-well plate for 30 min at room temperature in the assay buffer containing 20 mM Bicine, pH 7.6, 25 mM NaCl, 2 mM DTT, 0.01% Chicken albumin and 0.01% Tween-20. Reaction was initiated by adding 1 μM of SAM and 50 nM biotinylated H4R3. Total assay volume was 15 μL. Reaction was continued for 120 min at room temperature. Then detection solution containing Streptavidin-Eu cryptate, anti-rabbit IgG-XL-665, Histone H4R3 Dimethyl Symmetric (H4R3me2s) Polyclonal Antibody, all prepared in HTRF detection buffer was added and further incubated for 30 min at room temperature. HTRF signal was recorded in PHERAStar microplate reader. Ratio of signal obtained at 665 nm and 620 nm was used to compute the percent inhibition of compound as follows % Inhibition=100−((Test Ratio−Negative control Ratio)/(Positive control Ratio−Negative control Ratio)*100) where Positive control=PRMT5+SAM+H4R3 Negative control=PRMT5+H4R3 Biochemical Assay Protocol 2
as §1, with “2.5” for “15-25”, “4 h” for “120 min”, “control=PRMT5+H4R3” for “control=PRMT5+H4R3 Biochemical Assay Protocol 2”

[2] = tested on: SDMA; experiment: SDMA inhibition assay in Z-138 cells (ELISA with anti-SDMA antibody); format: cell-based; details: Homo sapiens, Z-138, 48 h, 48 h treatment, read-out: IC50 (activity range), SDMA inhibition
Experimental: Z-138 cells (ATCC, CRL-3001™) were seeded at a density of 1 million cells/well in transparent, flat bottomed tissue culture grade 48-well plates. Cells were treated with various concentration of test compounds for a period of 48 h. Cell lysate was prepared using 1× CST Lysis buffer (Cell Signaling Technology, USA) and 500 ng/well/50 μL of lysate in pH 9.6 carbonate buffer was coated on 96-well Maxisorb plate and incubated overnight at 4° C. The plate was washed twice in 1×PBS containing 0.05% Tween 20 and blocked in 1% BSA for 1 h at ambient temperature. Further, the plate was incubated first with primary antibody (anti-SDMA antibody; CST #13222s) at ambient temperature for 2 h and then with HRP-conjugated secondary antibody at ambient temperature for 1 h with 2 intermittent washing steps in between.
For luminiscence based detection, HRP substrates (substrate A+substrate B in a 1:1 proportion) were added followed by luminiscence reading after 30 min in Synergy™ 2 reader (Biotek, USA).
For absorbance based detection, TMB substrate was added followed by addition of STOP solution (2N H2SO4) post colour development and absorbance (excitation 450 nm and emission 540 nm) was measured in Synergy™ 2 reader (Biotek, USA).
% inhibition of SDMA was calculated relative to the vehicle control samples containing media with 0.1% DMSO alone as per the formula below. (Avg. of Untreated Control−Avg. of Test)×100 Avg. Of Untreated Control
The IC50 values of individual compounds were calculated with Non Linear Regression Analysis using Graph Pad Prism (Graph Pad software, Inc, USA).

[3] = tested on: Z-138 cells; experiment: Anti-cancer assay (Z-138), cell viability by CellTiterGlo; format: cell-based; details: Homo sapiens, 96 h treatment, read-out: IC50 (activity range), inhibition of cell viability
Experimental: Z-138 cells were seeded at a density of 2000-3000 cells per well in culture media (IMDM+10% FBS). PANC-1 (ATCC, CRL-1469™) and MIA PaCa-2 (ATCC, CRL-1420™) cells were seeded at a density of 200-300 cells per well in culture media (DMEM+10% FBS). Cells were seeded in opaque, flat bottomed tissue culture grade 96-well plates and Z-138 cells (suspension) were seeded and treated on the same day with various concentrations of test compounds. PANC-1 and MIA PaCa-2 cells, being adherent, were kept for overnight settlement at standard cell culture conditions (37° C., 5% CO2). On the following day, cells were treated with various concentrations of test compounds. Cells were treated with test compounds for a period of 96 h, 7 days and 10 days, for Z-138 cells, PANC-1 cells and MIA PaCa-2 cells, respectively. Cell viability was assessed using CellTiterGlo™ (Promega, USA) as per manufacturer's instructions. Relative Light Units (RLU) were read in Synergy™ 2 reader (Biotek, USA). The assay measures cellular ATP as an indicator of cell viability. RLU is proportional to the number of viable cells in the respective well. % inhibition of cell viability was calculated relative to the vehicle control samples containing media with 0.1% DMSO alone as per the formula below. (Avg. of Untreated Control−Avg. of Test)×100 Avg. Of Untreated Control
The IC50 values of individual compounds were calculated with Non Linear Regression Analysis using Graph Pad Prism (Graph Pad software, Inc, USA). • Anti-Cancer Assay (Z-138)

PRMT5:MEP50, sequence (O14744 whole entry, the tested form may be a part): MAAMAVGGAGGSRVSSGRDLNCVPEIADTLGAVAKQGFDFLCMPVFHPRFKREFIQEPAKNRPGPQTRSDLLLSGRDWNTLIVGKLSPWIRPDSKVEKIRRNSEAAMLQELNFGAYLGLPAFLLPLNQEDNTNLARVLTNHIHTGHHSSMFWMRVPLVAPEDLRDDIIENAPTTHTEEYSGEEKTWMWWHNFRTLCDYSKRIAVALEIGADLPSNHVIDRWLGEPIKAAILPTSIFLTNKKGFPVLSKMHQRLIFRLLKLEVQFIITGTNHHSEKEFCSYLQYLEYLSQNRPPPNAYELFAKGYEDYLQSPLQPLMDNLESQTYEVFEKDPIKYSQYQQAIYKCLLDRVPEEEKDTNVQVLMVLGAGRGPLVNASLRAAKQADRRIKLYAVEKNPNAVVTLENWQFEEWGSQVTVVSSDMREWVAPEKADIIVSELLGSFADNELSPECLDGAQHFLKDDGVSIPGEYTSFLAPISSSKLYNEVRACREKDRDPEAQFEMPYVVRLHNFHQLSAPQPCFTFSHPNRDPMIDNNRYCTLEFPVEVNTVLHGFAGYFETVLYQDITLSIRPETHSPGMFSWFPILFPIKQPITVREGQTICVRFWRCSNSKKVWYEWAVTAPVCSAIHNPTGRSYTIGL
PRMT5:MEP50, sequence (Q9BQA1 whole entry partner, the tested form may be a part): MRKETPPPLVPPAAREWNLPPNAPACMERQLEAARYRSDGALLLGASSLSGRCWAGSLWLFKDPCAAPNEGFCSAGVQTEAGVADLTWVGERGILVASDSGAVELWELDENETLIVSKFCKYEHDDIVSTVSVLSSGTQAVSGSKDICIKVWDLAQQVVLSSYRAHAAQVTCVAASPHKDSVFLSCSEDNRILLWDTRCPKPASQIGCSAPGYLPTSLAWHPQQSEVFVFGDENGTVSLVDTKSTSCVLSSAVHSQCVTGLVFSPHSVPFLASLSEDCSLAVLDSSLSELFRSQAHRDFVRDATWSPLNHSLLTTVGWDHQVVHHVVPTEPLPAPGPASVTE

- IC50 [1]: > 0.95 nM
- IC50 [2]: 1.1 to 50 nM
- IC50 [3]: > 1 nM
SMILES: Nc1nc2cc(CCC3=C[C@@H](n4ccc5c4ncn4ccnc54)[C@H](O)[C@@H]3O)ccc2cc1Br [Compound 26, (1S,2R,5R)-3-(2-(2-Amino-3-bromoquinolin-7-yl)ethyl)-5-(7H-imidazo[1,2-c]pyrrolo[3,2-e]pyrimidin-7-yl)cyclopent-3-ene-1,2-diol]
